Experimental data reported in patent US20230107216A1, “PANTETHEINE DERIVATIVES AND USES THEREOF” (Comet Therapeutics, Inc., priority 2018, published 2023).
Read-outs that look alike come from different tables or passages of the source.

How the values were obtained:
[1] = tested on: Methylmalonic Acidemia (MMA) primary fibroblasts GM01673; assay: Mitochondrial respiration, XFe96 Extracellular Flux Analyzer (OCR/ECAR), MMA fibroblasts GM01673; type: cell-based; conditions: Homo sapiens, Fibroblast
Description: The effect of the compounds of the present disclosure on mitochondrial respiration was measured with a XFe96 Extracellular Flux Analyzer (Seahorse Bioscience, Agilent Technologies) and Oxygen consumption Rate (OCR) and Extracellular acidification rate (ECAR) determined.
Cell culture and treatments. Primary adherent fibroblasts were cultured in minimum essential medium (MEM) (Gibco, 25030081) supplemented with 2 mM L-Glutamine (Gibco, 25030081), 15% fetal bovine serum (FBS) (Gibco, 26400044) and 1% penicillin/streptomycin (Gibco, 5140122) at 37° C. and 5% CO2. Cells were collected for either passaging or experiment at ˜70-80% confluence. Cells were obtained by trypsinization and seeded at 20000 cells/well in cell culture microplates (Seahorse Bioscience, 101085-004) and allowed to adhere for 16 hours in culture media.
By profiling different primary cells and/or optimizing their culture media or environmental components one can select cell lines and/or conditions that are appropriate for the biological or disease model. In the present example, 24 hours prior to OCR and ECAR profiling, media was changed to Dulbecco's Modified Eagle Medium (DMEM, Agilent Seahorse 103575-100) with the appropriate supplements for the different primary cells (10 mM glucose, 2 mM L-glutamine, 1 mM pyruvate, 10% FBS; 1 mM glucose, 2 mM L-glutamine, 1 mM pyruvate, 10% FBS; 10 mM glucose, 10% FBS; 5 mM glucose 10% FBS; 1 mM glucose 10% FBS). Cells used in this example were: Propionic Acidemia (PA) (GM00371, GM03590 Coriell Institute for Medical Research, Tsi 6337, Tsi 4626, Tsi 3618 Trans-Hit Bio), Methylmalonic Acidemia (MMA) (GM01673, Coriell Institute for Medical Research, Tsi 5224 Trans-Hit Bio), Branched chain ketoacid dehydrogenase kinase (BCKDK) (GM00612, GM00649 Coriell Institute for Medical Research), Subnormal activation of pyruvate dehydrogenase complex (PDH) (GM01503 Coriell Institute for Medical Research), Very long-chain acyl-CoA dehydrogenase (VLCAD) (GM17475), Leigh Syndrome (LS) (GM03672, GM13411 Coriell Institute for Medical Research), Pyruvate Carboxylase Deficiency (PC) (GM00444 Coriell Institute for Medical Research), Glutaric Acidemia-I (GA) (GM10653), Friedreich's Ataxia (FXN) (GM04078 Coriell Institute for Medical Research, Huntington's disease (HD) (GM21756 Coriell Institute for Medical Research), Ornithine Transcarbamylase Deficiency (OTC) (GM12756 Coriell Institute for Medical Research), Kearns-Sayre Syndrome (KSS) (GM06225 Coriell Institute for Medical Research).
One hour before the assay, the cells were washed with freshly prepared unbuffered serum free-Seahorse XF Assay medium (Seahorse Bioscience, North America, USA, 103575-100) with the same supplements as for the previous 24 hour incubation.
After baseline measurements of OCR, cells were challenged with compounds of the present disclosure at different concentrations (10 to 50 μM) or vehicle (DMSO, 0.1%) and a post-compound baseline was recorded. OCR was measured after sequentially adding to each well 1 μg/ml oligomycin (inhibitor of ATP synthase Sigma-Aldrich, 753531), then maximal OCR was determined with carbonyl cyanide 4-(trifluoromethoxy) phenylhydrazone (FCCP, Sigma-Aldrich, C2920), (uncoupler of oxidative phosphorylation) and 0.5 μM of rotenone (Sigma-Aldrich, R8875) plus antimycin A (Sigma-Aldrich, A8674) (inhibitors of mitochondrial complex I and III) for determination of rotenone-antimycin insensitive respiration together with Hoechst for nuclear staining in situ when normalized to cell counts. After the analysis and nuclear staining, the XFp microplate was transferred to the Cytation 5, and the nuclear images were captured, the individual nuclei were identified and counted by BioTek Gen5 software. Data were expressed as pmol of O2 per minute and normalized by nuclear staining and baselined to pre-compound addition.
Assay conditions were as stated below.
Assay specifics on assay conditions are indicated below when readouts were normalized to cell counts. […]

[2] = tested on: Propionic Acidemia (PA) primary fibroblasts GM00371; assay: Mitochondrial respiration, XFe96 Extracellular Flux Analyzer (OCR/ECAR), PA fibroblasts GM00371; type: cell-based; conditions: Homo sapiens, Fibroblast, 50 μM, read-out: Increase in Maximal Respiratory Capacity AUC
[3] = tested on: primary fibroblasts (healthy controls and PA, MMA, BCKDK, PDH, VLCAD, LS, PC, GA, VLCFA, KSS, FXN, HD); assay: Measurement of ROS (H2DCFDA) in primary fibroblasts; type: cell-based, human; conditions: Homo sapiens, Fibroblast, PC GM00444, procedure Example 812, Assay Condition C
Outline: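 Patient and healthy-control primary fibroblasts switched to supplemented DMEM 24 h before assay, then treated with compound (10 μM) plus H2DCFDA (22 μM) for 2 h (PA, MMA lines) or 24 h (other lines). Kinetic fluorescence at 492/527 nm over 60 min; only live cells analysed.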

HepG2 cells = assay: Glucose uptake (Glucose Uptake-Glo); type: cell-based; conditions: Homo sapiens, 50 uM, read-out: % increase in Glucose Uptake
[4] = tested on: Venular Endothelial cells (HUVEC) (4H system); assay: BioMAP 4H system (IL-4 and histamine); type: cell-based, human; conditions: Homo sapiens, HUVEC, 24 h; 1 uM; procedure of Example 826; read-out: % decrease in E-Selectin
[5] = tested on: Peripheral blood mononuclear cells co-cultured with venular endothelial cells (HUVEC) (LPS system); assay: BioMAP LPS system; type: cell-based, human; conditions: Homo sapiens, HUVEC, 24 h, procedure of Example 827
[6] = tested on: Bronchial epithelial cells co-cultured with dermal fibroblast (BF4T system); assay: BioMAP BF4T system (TNFα and IL-4); type: cell-based, human; conditions: Homo sapiens, 24 h; 10 uM; procedure of Example 830; read-out: % increase in VCAM-1
[7] = tested on: Bronchial epithelial cells (BE3C system); assay: BioMAP BE3C system (IL-1β, TNFα, IFNγ); type: cell-based, human; conditions: Homo sapiens, Epithelial cell, 24 h; 10 uM; procedure of Example 831; read-out: % decrease in MMP-1
[8] = tested on: Dermal fibroblasts (HDF3CGF system); assay: BioMAP HDF3CGF system (IL-1β, TNFα, IFNγ, EGF, bFGF, PDGF-BB); type: cell-based, human; conditions: 10 uM
[9] = tested on: primary culture of rat embryo mesencephalic cells (microglia, astrocytes and neurons) exposed to LPS; assay: Neuroprotective effect on damage induced by LPS on culture of mesencephalic neurons (NO, TNF-α, IL-1β, TH positive neurons); type: cell-based; conditions: 50 uM, after 5 days of LPS exposure; for inhibition at 50 µM: Rattus norvegicus, Neuron, 120 h, read-out: % reversion of TH positive neurons
Description: Drug preparation. […] The stock solutions will be prepared 1000× the concentration in 100% DMSO. The final concentration of the vehicle (DMSO) is set at 0.1%.
Test animals. Pregnant Wistar rats (Janvier; France) are used for the study. They are group-housed and maintained in a room with controlled temperature (21-22° C.) and a reversed light-dark cycle (12h/12h; lights on: 17:30-05:30; lights off: 05:30-17:30) with food and water available ad libitum.
The protocol is performed in 3 independent cultures. For each culture, each condition is performed in sextuplicate.
Female rat of 15 days gestation is killed by cervical dislocation. Fetuses are removed from the uterus and their brains are harvested and placed in ice-cold medium (Leibovitz's L15 medium, Gibco). Only ventral mesencephalic flexure is used for the cell preparations. The midbrain is dissociated by trypsinization. The reaction is stopped, and the suspension is triturated and centrifuged. The pellet of dissociated cells is resuspended in culture medium consisted of DMEM-F12 (Gibco), containing 10% FBS (ATCC), 10% Horse serum (Gibco) and 2 mM L-glutamine (Gibco). Viable cells are counted and seeded on 96-well plates, precoated with poly-L-lysine. Cells are maintained in a humidified incubator at 37° C. in 5% CO2-95% air atmosphere. Half of the medium is changed on day 2 and day 5.
Treatment. On day 7, culture media are removed and replaced by new medium consisting of DMEM-F12 (Gibco) supplemented with 2% FBS (ATCC), 2% Horse serum (Gibco) and 2 mM L-glutamine (Gibco) and containing vehicle or test substances. After 1-hour exposure, LPS at 10 ng/ml is added and exposure further continued for 24 hours or 5 days period.
Inflammatory response measurement and neuronal death evaluation. NO production is measured in the media 24h and 5 days after LPS exposure using the Griess reagent kit (Molecular Probes). The Griess reagent Assay is a colorimetric reaction assay which measures the conversion of a sulfanilic salt into an azo dye product by nitrite. Visible wavelength absorbance data is collected using a 96-well plate reader at 570 nm (Multiskan EX, Thermo Fisher, France). IL-1β and TNF-α release are measured in the media 24h after LPS exposure using the ELISA development kit (PeproTech). The ELISA plate, previously coated with anti-IL-1β or anti-TNF-αantibody at 1 μg/ml, is incubated 1h with PBS containing 1% of BSA (bovine serum albumin). After washing four times with PBS containing 0.05% of Tween-20, the plate is successively incubated 2h with supernatant, 2h with biotinylated antibody at 0.5 μg/ml in PBS containing 0.1% of BSA and 0.05% of Tween-20, 45 min with Avidin-HRP conjugated at 1/2000 and 30 min with color ABTS substrate (Sigma). Visible wavelength absorbance data is collected using a 96-well plate reader at 405 nm with wavelength correction set at 650 nm (Multiskan EX, Thermo Fisher, France).
Immunodetection of tyrosine hydroxylase positive neurons. On day 12 (5 days after LPS exposure), cultures are fixed 30 min at 4° C. with paraformaldehyde in PBS (4%, Sigma). Then, cells are successively permeabilized with 0.1% Triton X100 for 30 min, saturated with PBS containing 3% of BSA (bovine serum albumin) and are incubated 2h with anti-tyrosine hydroxylase antibody (Sigma, 1:10000; clone TH-2) at 1/10 000 in PBS containing 0.5% of BSA. Cells are washed three times with PBS containing 0.5% of BSA, and they are incubated 1h with goat anti mouse antibody coupled with AF488 (Invitrogen A11001) diluted at 1/1000 in PBS containing 0.5% of BSA. Finally, nuclei are stained with DAPI at 1/1000 in PBS containing 0.5% of BSA. After rinsing with PBS, the plate is visualized and examined with Cell Insight HCS (Thermo Scientific) to determine the number of tyrosine hydroxylase positive cells per well.
Statistical Analysis. The drug-induced effect on NO and cytokines is calculated by setting the response of the LPS-stimulated control as 100%. […]

[10] = tested on: Peripheral blood mononuclear cells co-cultured with B-cells (BT system)
[11] = tested on: Peripheral blood mononuclear cells co-cultured with B-cells (BT system); assay: cells; conditions: Homo sapiens, 72 h, read-out: % increase in sIL-6
[12] = assay condition A (10 mM glucose, 2 mM L-glutamine, 1 mM pyruvate, 10% FBS), read-out: Increase in Maximal Respiratory Capacity AUC

## CC(C)(CO)[C@@H](O)C(=O)NCCC(=O)NCCSC(=O)CC[C@H](N)C(=O)O [Compound 385, (S)-2-amino-5-((2-(3-((R)-2,4-dihydroxy-3,3-dimethylbutanamido)propanamido)ethyl)thio)-5-oxopentanoic acid]
[1]; assay condition A (10 mM glucose, 2 mM L-glutamine, 1 mM pyruvate, 10% FBS), read-out: Increase in Spare Capacity AUC
  activation at 10 µM: ≥ 10%
[2]; assay condition D (1 mM glucose, 10% FBS)
  activation at 50 µM: ≥ 10%
[3]; read-out: Decreased ROS by at least 10%
  inhibition at 10 µM: ≥ 10%
[3]; read-out: Decreased ROS by at least 30%
  inhibition at 10 µM: ≥ 30%

## CC(C)(CO)[C@@H](O)C(=O)NCCC(=O)NCCSC(=O)CC(=O)N[C@@H](CCCCN)C(=O)O [Compound 485]
[1]; [12]
  activation at 50 µM: ≥ 10%

## CC(=O)N[C@@H](CC(=O)CC(=O)SCCNC(=O)CCNC(=O)[C@H](O)C(C)(C)CO)C(=O)O [Compound 447]
[1]; [12]
  activation at 50 µM: ≥ 10%

## COC(=O)CC(SCCNC(=O)CCNC(=O)[C@H](O)C(C)(C)COC(=O)CN)C(=O)OC (stereo partly shown) [Compound 172]
[1]; [12]
  activation at 10 µM: ≥ 10%
[1]; assay condition D (1 mM glucose, 10% FBS), read-out: Increase in Maximal Respiratory Capacity AUC
  activation at 10 µM: ≥ 10%
[2]; assay condition A (10 mM glucose, 2 mM L-glutamine, 1 mM pyruvate, 10% FBS)
  activation at 50 µM: ≥ 10%

## CC(=O)CC(=O)SCCNC(=O)CCNC(=O)[C@H](O)C(C)(C)COC(=O)O[C@H](CC(=O)[O-])C[N+](C)(C)C [Compound 185, (3R,9R)-9-hydroxy-8,8-dimethyl-5,10,14,19,21-pentaoxo-3-((trimethylammonio)methyl)-4,6-dioxa-18-thia-11,15-diazadocosanoate]
[2]; assay condition C (10 mM glucose, 10% FBS)
  activation at 50 µM: ≥ 10%
HepG2 cells
  activation at 50 µM: ≥ 30%
[4]
  inhibition at 1 µM: ≥ 10%
[5]; 1 uM, read-out: % decrease in sPGE2
  inhibition at 1 µM: ≥ 10%
[5]; 10 uM, read-out: % decrease in IL-1α
  inhibition at 10 µM: ≥ 10%
[5]; 10 uM, read-out: % increase in sTNFα
  activation at 10 µM: ≥ 10%
[6]
  activation at 10 µM: ≥ 10%
[7]
  inhibition at 10 µM: ≥ 10%
[8]
  % increase in SRB: ≥10%
[8]; Homo sapiens, Fibroblast, 72 h, read-out: % increase in 72 Hour Proliferation
  activation at 10 µM: ≥ 10%
[9]
  % decrease in NO release relative to LPS alone: ≥20%
[9]; list at threshold 15%
  inhibition at 50 µM: ≥ 15%
[9]; list at threshold 50%
  inhibition at 50 µM: ≥ 50%
[10]; 1 uM, procedure of Example 829
  % increase in B-cell Proliferation: ≥10%
[10]; human, 72 h, 1 µM
  % increase in PBMC cytotoxicity: ≥10%
[11]
  activation at 1 µM: ≥ 10%
